Legend:
Type in all cases: biochemical
recombinant human DPP9 = molecular target: T1, recombinant human DPP9 (Homo sapiens, UniProt Q86TI2); experiment: DPP9 inhibition, fluorogenic substrate H-Gly-Pro-AMC; details: recombinant human DPP9
T1 construct: purchased R&D Systems
Outline: (§1)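 Enzyme per reaction: 50 ng DPP9, 20 ng DPP8, 10 ng each DPP7 and PREP. Compounds were serially diluted (8 points, up to 0.5% DMSO) and incubated at 25 °C.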

Recombinant human FAP = molecular target: T2, Recombinant human FAP (Homo sapiens, UniProt Q12884); experiment: FAP FRET assay, FGF21-sequence FRET peptide substrate; details: FRET peptide with human FGF21 sequence, 6 μM, 37° C.
T2 construct: purchased R&D systems
T2 sequence (Q12884 1-760): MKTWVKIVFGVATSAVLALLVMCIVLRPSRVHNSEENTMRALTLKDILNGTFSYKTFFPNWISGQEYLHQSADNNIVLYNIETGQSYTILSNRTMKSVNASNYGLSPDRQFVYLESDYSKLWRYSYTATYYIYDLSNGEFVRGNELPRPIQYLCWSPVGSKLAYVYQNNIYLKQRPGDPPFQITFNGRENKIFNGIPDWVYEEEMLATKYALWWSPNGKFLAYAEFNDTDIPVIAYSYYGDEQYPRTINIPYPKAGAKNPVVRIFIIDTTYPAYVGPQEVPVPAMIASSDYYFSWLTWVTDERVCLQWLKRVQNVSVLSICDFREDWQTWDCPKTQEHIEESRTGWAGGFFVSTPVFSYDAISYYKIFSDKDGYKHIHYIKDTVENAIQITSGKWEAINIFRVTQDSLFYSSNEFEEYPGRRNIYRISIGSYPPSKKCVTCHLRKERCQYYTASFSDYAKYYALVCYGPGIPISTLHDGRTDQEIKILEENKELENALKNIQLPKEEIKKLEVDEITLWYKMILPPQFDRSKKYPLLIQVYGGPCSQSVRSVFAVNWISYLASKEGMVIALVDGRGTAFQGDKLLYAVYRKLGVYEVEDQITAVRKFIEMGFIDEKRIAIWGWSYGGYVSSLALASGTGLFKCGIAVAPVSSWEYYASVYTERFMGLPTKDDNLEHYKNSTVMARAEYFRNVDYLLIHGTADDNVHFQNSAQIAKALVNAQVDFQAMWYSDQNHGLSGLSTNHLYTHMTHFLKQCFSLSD
Outline: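 Recombinant human FAP, 10 ng per reaction, in 50 mM HEPES pH 7.2 with 150 mM NaCl, 0.1 mg/ml BSA, 1 mM EDTA; HyLite Fluor 488/QXL 520 FRET peptide of human FGF21 sequence at 6 μM final, ≤0.1% DMSO, 37° C. IC50 from 8-point curves by four-parameter logistic fit.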

DPP4 = DPP4 (Homo sapiens, UniProt P27487); experiment: DPP4 inhibition, fluorogenic substrate H-Gly-Pro-AMC; design: purchased R&D Systems; details: recombinant human DPP4
recombinant human PREP = molecular target: T3, recombinant human PREP (Homo sapiens, UniProt P48147); experiment: PREP inhibition, fluorogenic substrate Z-Gly-Pro-AMC; details: Inhibitory Activity (IC50, nM) PREP, recombinant human PREP
T3 construct: purchased R&D System
T3 sequence (P48147 1-710): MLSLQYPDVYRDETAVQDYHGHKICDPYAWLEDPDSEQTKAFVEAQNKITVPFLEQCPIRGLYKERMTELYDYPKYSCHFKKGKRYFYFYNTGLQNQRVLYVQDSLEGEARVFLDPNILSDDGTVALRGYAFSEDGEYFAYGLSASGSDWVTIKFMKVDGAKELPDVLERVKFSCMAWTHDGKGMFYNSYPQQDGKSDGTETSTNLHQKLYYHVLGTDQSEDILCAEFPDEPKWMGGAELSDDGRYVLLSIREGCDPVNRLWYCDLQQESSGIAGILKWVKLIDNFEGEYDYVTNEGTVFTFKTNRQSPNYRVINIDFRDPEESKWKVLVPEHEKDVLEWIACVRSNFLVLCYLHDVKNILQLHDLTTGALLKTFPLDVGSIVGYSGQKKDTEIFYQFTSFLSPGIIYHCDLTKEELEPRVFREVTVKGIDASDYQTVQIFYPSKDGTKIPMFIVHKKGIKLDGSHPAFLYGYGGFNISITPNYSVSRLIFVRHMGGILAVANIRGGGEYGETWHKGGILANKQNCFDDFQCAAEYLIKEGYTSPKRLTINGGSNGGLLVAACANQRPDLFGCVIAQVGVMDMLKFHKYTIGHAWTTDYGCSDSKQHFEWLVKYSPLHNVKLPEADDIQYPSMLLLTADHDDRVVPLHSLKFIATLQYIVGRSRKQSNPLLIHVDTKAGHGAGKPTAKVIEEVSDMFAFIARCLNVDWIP
Outline: as §1

recombinant human DPP7 = molecular target: T4, recombinant human DPP7 (Homo sapiens, UniProt Q9UHL4); experiment: DPP7 inhibition, fluorogenic substrate Lys-Pro-AMC; details: recombinant human DPP7
T4 construct: purchased R&D Systems
Outline: as §1

Sequence of DPP4 (P27487 whole entry): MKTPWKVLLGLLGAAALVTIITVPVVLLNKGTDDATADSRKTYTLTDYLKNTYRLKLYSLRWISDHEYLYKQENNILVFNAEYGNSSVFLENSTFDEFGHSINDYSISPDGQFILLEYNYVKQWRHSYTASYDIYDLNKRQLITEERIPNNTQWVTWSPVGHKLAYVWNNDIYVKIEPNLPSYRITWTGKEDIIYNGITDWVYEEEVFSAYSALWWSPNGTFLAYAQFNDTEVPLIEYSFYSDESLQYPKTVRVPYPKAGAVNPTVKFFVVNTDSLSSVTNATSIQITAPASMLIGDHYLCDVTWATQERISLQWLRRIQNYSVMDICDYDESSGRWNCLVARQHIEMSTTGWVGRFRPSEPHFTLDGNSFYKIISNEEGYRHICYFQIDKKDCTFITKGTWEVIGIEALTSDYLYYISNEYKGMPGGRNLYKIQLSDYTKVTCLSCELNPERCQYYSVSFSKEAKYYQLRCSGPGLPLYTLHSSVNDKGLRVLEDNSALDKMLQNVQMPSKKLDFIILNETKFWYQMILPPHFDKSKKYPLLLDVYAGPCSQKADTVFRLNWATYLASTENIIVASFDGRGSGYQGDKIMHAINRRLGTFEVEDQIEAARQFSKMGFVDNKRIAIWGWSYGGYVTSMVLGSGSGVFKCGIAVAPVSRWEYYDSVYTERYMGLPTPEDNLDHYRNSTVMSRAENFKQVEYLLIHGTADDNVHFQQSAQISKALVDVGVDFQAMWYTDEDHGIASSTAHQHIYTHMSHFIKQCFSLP
T1 sequence (Q86TI2 whole entry): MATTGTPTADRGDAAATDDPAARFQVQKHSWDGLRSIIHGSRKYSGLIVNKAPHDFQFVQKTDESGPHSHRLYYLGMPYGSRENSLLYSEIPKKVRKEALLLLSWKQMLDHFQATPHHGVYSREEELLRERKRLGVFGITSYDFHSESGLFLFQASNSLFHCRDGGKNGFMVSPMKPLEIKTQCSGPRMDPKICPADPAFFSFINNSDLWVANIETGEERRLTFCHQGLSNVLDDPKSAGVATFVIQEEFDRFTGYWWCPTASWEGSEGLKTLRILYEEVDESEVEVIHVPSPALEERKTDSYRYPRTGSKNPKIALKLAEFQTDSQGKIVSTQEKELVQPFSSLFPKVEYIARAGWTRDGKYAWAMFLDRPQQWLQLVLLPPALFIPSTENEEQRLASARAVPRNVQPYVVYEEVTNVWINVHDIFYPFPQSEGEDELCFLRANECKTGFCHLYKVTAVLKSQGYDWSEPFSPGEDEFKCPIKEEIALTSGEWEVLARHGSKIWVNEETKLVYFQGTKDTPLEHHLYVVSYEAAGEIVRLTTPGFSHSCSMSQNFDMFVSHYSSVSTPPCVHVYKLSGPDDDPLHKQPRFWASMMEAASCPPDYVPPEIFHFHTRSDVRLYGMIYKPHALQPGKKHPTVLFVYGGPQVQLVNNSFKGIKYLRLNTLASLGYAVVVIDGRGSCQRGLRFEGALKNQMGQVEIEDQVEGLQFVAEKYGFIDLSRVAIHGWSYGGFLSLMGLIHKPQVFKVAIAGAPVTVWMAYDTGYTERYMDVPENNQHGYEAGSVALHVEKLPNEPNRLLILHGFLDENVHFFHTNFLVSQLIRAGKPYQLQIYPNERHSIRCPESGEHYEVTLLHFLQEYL

SMILES | IC50 (recombinant human DPP9) [nM] | IC50 (Recombinant human FAP) [nM] | IC50 (DPP4) [nM] | IC50 (recombinant human PREP) [nM] | IC50 (recombinant human DPP7) [nM]
CN(C(=O)c1ccc(N[C@H]2CCN(CC(=O)N3C[C@@H](F)C[C@H]3C#N)C2)c2cccnc12)c1ccccc1 [Example 284, N-methyl-N-phenyl-5-[[(3S)-1-[2-oxo-2-[(2S,4S)-2-cyano-4-fluoro-pyrrolidin-1-yl]ethyl]pyrrolidin-3-yl]amino]quinoline-8-carboxamide] | 1640 | 10.6 | 2390 | 574 | 932
CN(Cc1ccccc1)C(=O)c1ccc(N[C@H]2CCN(CC(=O)N3C[C@@H](F)C[C@H]3C#N)C2)c2cccnc12 [Example 285, N-benzyl-N-methyl-5-[[(3S)-1-[2-oxo-2-[(2S,4S)-2-cyano-4-fluoro-pyrrolidin-1-yl]ethyl]pyrrolidin-3-yl]amino]quinoline-8-carboxamide] | 1080 | 3.9 | 2500 | 2450 | 333
CN(Cc1ccccc1)C(=O)c1ccc(N[C@H]2CCN(CC(=O)N3CCC[C@H]3C#N)C2)c2cccnc12 [Example 288, N-benzyl-N-methyl-5-[[(3S)-1-[2-oxo-2-[(2S)-2-cyanopyrrolidin-1-yl]ethyl]pyrrolidin-3-yl]amino]quinoline-8-carboxamide] | 1210 | 14 | 18500 | 11400 | 677
N#C[C@@H]1CCCN1C(=O)CN1CC[C@H](Nc2ccc(C(=O)Nc3cccnc3)c3ncccc23)C1 [Example 290, N-(3-pyridyl)-5-[[(3S)-1-[2-oxo-2-[(2S)-2-cyanopyrrolidin-1-yl]ethyl]pyrrolidin-3-yl]amino]quinoline-8-carboxamide] | 567 | 1.1 | 926 | 429 | 121
N#C[C@@H]1CCCN1C(=O)CN1CC[C@H](Nc2ccc(C(=O)Nc3ccncc3)c3ncccc23)C1 [Example 291, N-(4-pyridyl)-5-[[(3S)-1-[2-oxo-2-[(2S)-2-cyanopyrrolidin-1-yl]ethyl]pyrrolidin-3-yl]amino]quinoline-8-carboxamide] | 2840 | 4.4 | 12900 | 2110 | 173
N#C[C@@H]1C[C@H](F)CN1C(=O)CN1CC[C@H](Nc2ccc(C(=O)Nc3ccncc3)c3ncccc23)C1 [Example 292, N-(4-pyridyl)-5-[[(3S)-1-[2-oxo-2-[(2S,4S)-2-cyano-4-fluoro-pyrrolidin-1-yl]ethyl]pyrrolidin-3-yl]amino]quinoline-8-carboxamide] | 371 | 1.3 | 5180 | 1470 | 163
N#C[C@@H]1CCCN1C(=O)CN1CC[C@H](Nc2ccc(C(=O)Nc3ccccn3)c3ncccc23)C1 [Example 293, N-(2-pyridyl)-5-[[(3S)-1-[2-oxo-2-[(2S)-2-cyanopyrrolidin-1-yl]ethyl]pyrrolidin-3-yl]amino]quinoline-8-carboxamide] | 1250 | 0.8 | 2670 | 422 | 122
CC(=O)Nc1ccc(N[C@H]2CCN(CC(=O)N3CCC[C@H]3C#N)C2)c2cccnc12 [Example 296, N-[5-[[(3S)-1-[2-oxo-2-[(2S)-2-cyanopyrrolidin-1-yl]ethyl]pyrrolidin-3-yl]amino]-8-quinolyl]acetamide] | 10600 | 4.7 | 15600 | 6440 | 142
N#C[C@@H]1C[C@H](F)CN1C(=O)CN1CC[C@H](Nc2ccc(NC(=O)c3ccccc3)c3ncccc23)C1 [Example 298, N-[5-[[(3S)-1-[2-oxo-2-[(2S,4S)-2-cyano-4-fluoro-pyrrolidin-1-yl]ethyl]pyrrolidin-3-yl]amino]-8-quinolyl]benzamide] | 3070 | 2.1 | 1860 | 6520 | 257
CCN(c1cnc2ccccc2c1)C1CCN(CC(=O)N2CCC[C@H]2C#N)CC1 [Example 302, (2S)-1-[2-[4-[ethyl(3-quinolyl)amino]-1-piperidyl]acetyl]pyrrolidine-2-carbonitrile] | ≥ 100000 | 22.2 | ≥ 100000 | 350 | 7350
CCN(c1ccc2ncccc2c1)C1CCN(CC(=O)N2CCC[C@H]2C#N)CC1 [Example 303, (2S)-1-[2-[4-[ethyl(6-quinolyl)amino]-1-piperidyl]acetyl]pyrrolidine-2-carbonitrile] | ≥ 100000 | 9.2 | ≥ 100000 | 483 | 1940

Other lines, results leading:

IC50 (recombinant human DPP9) [nM] | IC50 (Recombinant human FAP) [nM] | IC50 (DPP4) [nM] | IC50 (recombinant human PREP) [nM] | IC50 (recombinant human DPP7) [nM] | SMILES
593 | 3.5 | 610 | 1280 | 615 | N#C[C@@H]1C[C@H](F)CN1C(=O)CN1CC[C@H](Nc2cc(F)c3ncccc3c2)C1 [Example 278, (2S,4S)-4-fluoro-1-[2-[(3S)-3-[(8-fluoro-6-quinolyl)amino]pyrrolidin-1-yl]acetyl]pyrrolidine-2-carbonitrile]
614 | 1.5 | 254 | 637 | 398 | N#C[C@@H]1C[C@H](F)CN1C(=O)CN1CC[C@H](Nc2cc(Cl)c3ncccc3c2)C1 [Example 279, (2S,4S)-4-fluoro-1-[2-[(3S)-3-[(8-chloro-6-quinolyl)amino]pyrrolidin-1-yl]acetyl]pyrrolidine-2-carbonitrile]
674 | 2.1 | 839 | 970 | 184 | N#C[C@@H]1C[C@H](F)CN1C(=O)CN1CC[C@H](Nc2cc(C(F)(F)F)c3ncccc3c2)C1 [Example 280, (2S,4S)-4-fluoro-1-[2-[(3S)-3-[[8-(trifluoromethyl)-6-quinolyl]amino]pyrrolidin-1-yl]acetyl]pyrrolidine-2-carbonitrile]
4850 | 5.8 | 3470 | 5060 | 241 | CN(C)C(=O)c1ccc(N[C@H]2CCN(CC(=O)N3C[C@@H](F)C[C@H]3C#N)C2)c2cccnc12 [Example 282, N,N-dimethyl-5-[[(3S)-1-[2-oxo-2-[(2S,4S)-2-cyano-4-fluoro-pyrrolidin-1-yl]ethyl]pyrrolidin-3-yl]amino]quinoline-8-carboxamide]
87.8 | 0.7 | 865 | 724 | 64.1 | N#C[C@@H]1C[C@H](F)CN1C(=O)CN1CC[C@H](Nc2ccc(C(=O)Nc3cccnc3)c3ncccc23)C1 [Example 295, N-(3-pyridyl)-5-[[(3S)-1-[2-oxo-2-[(2S,4S)-2-cyano-4-fluoro-pyrrolidin-1-yl]ethyl]pyrrolidin-3-yl]amino]quinoline-8-carboxamide]
4200 | 2.9 | 2810 | 4750 | 13.5 | CC(=O)Nc1ccc(N[C@H]2CCN(CC(=O)N3C[C@@H](F)C[C@H]3C#N)C2)c2cccnc12 [Example 297, N-[5-[[(3S)-1-[2-oxo-2-[(2S,4S)-2-cyano-4-fluoro-pyrrolidin-1-yl]ethyl]pyrrolidin-3-yl]amino]-8-quinolyl]acetamide]
